Here are results for twelve compounds from patent publication US20210309657A1, “TRICYCLIC COMPOUNDS FOR THE TREATMENT AND PROPHYLAXIS OF BACTERIAL INFECTION” (Hoffmann-La Roche Inc., priority 2018, published 2021).

Values after ≈ are worked out from the molar mass of the structure shown. Where two headings read alike, the source gives them in different places. Some results are limits rather than exact numbers.

The series in a line: Lyophilisation solubility assay (LYSA). Format: physicochemical. To be noted: thermodynamic from solid. The procedure: The solubility of compounds of present invention was assessed by LYSA assay. Samples were prepared in duplicate from 10 mM DMSO stock solutions ([…]) diluted in 30 μL pure DMSO. After evaporation of DMSO with a centrifugal vacuum evaporator, the residue was dissolved in 0.05 M phosphate buffer (150 μL, pH 6.5), which was stirred for one hour and shook for two hours. After one night, the solution was filtered using a microtiter filter plate. Then the filtrate and its 1/10 dilution were analyzed by HPLC-UV. In addition, a four-point calibration curve was prepared from the 10 mM stock solutions and used for the solubility determination of the compounds.

Where [1] appears, read: aqueous buffer, 0.05 M phosphate buffer, pH 6.5, HPLC-UV, <1.0 = the detection limit, read-out: Lysa.

Turning to `CNc1cc(F)cc2c1[nH]c1ncc(-c3cncc(C#N)c3)c(N3CC[C@@H](N)C3)c12` [Example 1.01, 5-[4-[(3R)-3-Aminopyrrolidin-1-yl]-6-fluoro-8-(methylamino)-9H-pyrido[2,3-b]indol-3-yl]pyridine-3-carbonitrile], the solubility thermodynamic under setting [1] was 59 µg/mL (≈ 147 µM). As for `CCNc1cc(Cl)cc2c1[nH]c1ncc(-c3cncc(C#N)c3)c(N3CCC(N)C3)c12` (stereo not drawn) [Example 1.03, 5-[4-(3-Aminopyrrolidin-1-yl)-6-chloro-8-(ethylamino)-9H-pyrido[2,3-b]indol-3-yl]pyridine-3-carbonitrile], the solubility thermodynamic under setting [1] turned out to be 32.7 µg/mL (≈ 75.7 µM). `CCNc1cc(F)cc2c1[nH]c1ncc(-c3cncc(C#N)c3)c(N3CCCC3CN)c12` (stereo not drawn) [Example 1.06, 5-[4-[2-(Aminomethyl)pyrrolidin-1-yl]-8-(ethylamino)-6-fluoro-9H-pyrido[2,3-b]indol-3-yl]pyridine-3-carbonitrile]: under setting [1], the solubility thermodynamic is > 625 µg/mL. For the compound `CNc1cc(F)c(F)c2c1[nH]c1ncc(-c3cncc(C#N)c3)c(N3CCCC(CN)C3)c12` (stereo not drawn) [Example 1.21, 5-[4-[3-(Aminomethyl)-1-piperidyl]-5,6-difluoro-8-(methylamino)-9H-pyrido[2,3-b]indol-3-yl]pyridine-3-carbonitrile], the solubility thermodynamic under setting [1] came to 44 µg/mL (≈ 98.3 µM). Same read-out and setting: with `CNc1cc(F)cc2c1[nH]c1ncc(-c3cncc(C#N)c3)c(N3CCC(F)(CN)C3)c12` (stereo not drawn) [Example 1.23, 5-[4-[3-(Aminomethyl)-3-fluoro-pyrrolidin-1-yl]-6-fluoro-8-(methylamino)-9H-pyrido[2,3-b]indol-3-yl]pyridine-3-carbonitrile] the figure was 30 µg/mL (≈ 69.2 µM). Same read-out and setting: with `CNc1cc(F)c(F)c2c1[nH]c1ncc(-c3cnc(OC)nc3)c(N3CCC[C@@H](CN)C3)c12` [Example 1.25, 4-[(3S)-3-(Aminomethyl)-1-piperidyl]-5,6-difluoro-3-(2-methoxypyrimidin-5-yl)-N-methyl-9H-pyrido[2,3-b]indol-8-amine] the figure was 194 µg/mL (≈ 428 µM). For `CNc1cc(F)c(F)c2c1[nH]c1ncc(-c3cnc(OC)nc3)c(N3CCOC(CN)C3)c12` (stereo not drawn) [Example 1.33, 4-[2-(Aminomethyl)morpholin-4-yl]-5,6-difluoro-3-(2-methoxypyrimidin-5-yl)-N-methyl-9H-pyrido[2,3-b]indol-8-amine], the solubility thermodynamic under setting [1] is 475 µg/mL (≈ 1040 µM). Turning to `CNc1cc(F)c(F)c2c1[nH]c1ncc(-c3cnc(OC)nc3)c(N3CCC(C)(CN)C3)c12` (stereo not drawn) [Example 1.36, 4-[3-(Aminomethyl)-3-methyl-pyrrolidin-1-yl]-5,6-difluoro-3-(2-methoxypyrimidin-5-yl)-N-methyl-9H-pyrido[2,3-b]indol-8-amine], the solubility thermodynamic under setting [1] was 140 µg/mL (≈ 309 µM).

On to `CNc1cc(F)c(F)c2c1[nH]c1ncc(-c3cnc(OC)nc3)c(N3CCCC3CN)c12` (stereo not drawn) [Example 1.37, 4-[2-(Aminomethyl)pyrrolidin-1-yl]-5,6-difluoro-3-(2-methoxypyrimidin-5-yl)-N-methyl-9H-pyrido[2,3-b]indol-8-amine], for which the solubility thermodynamic under setting [1] was 545 µg/mL (≈ 1240 µM). Still for that read-out and setting: in the case of `CNc1cc(F)c(F)c2c1[nH]c1ncc(-c3cncc(C#N)c3)c(N3CCCC3CN)c12` (stereo not drawn) [Example 1.38, 5-[4-[2-(Aminomethyl)pyrrolidin-1-yl]-5,6-difluoro-8-(methylamino)-9H-pyrido[2,3-b]indol-3-yl]pyridine-3-carbonitrile] it was > 610 µg/mL. For `CNc1cc(F)c(F)c2c1[nH]c1ncc(-c3cncc(C#N)c3)c(N3CCC[C@@H](CN)C3)c12` [Example 1.40, 5-[4-[(3S)-3-(Aminomethyl)-1-piperidyl]-5,6-difluoro-8-(methylamino)-9H-pyrido[2,3-b]indol-3-yl]pyridine-3-carbonitrile], the solubility thermodynamic under setting [1] is 49 µg/mL (≈ 109 µM).

Compound `CNc1cc(F)c(F)c2c1[nH]c1ncc(-c3cncc(C#N)c3)c(N3CC4CC(C3)N4)c12` [Example 1.44, 5-(4-(3,6-Diazabicyclo[3.1.1]heptan-3-yl)-5,6-difluoro-8-(methylamino)-9H-pyrido[2,3-b]indol-3-yl)nicotinonitrile] displayed a solubility thermodynamic (pH 6.5, aqueous buffer) of 270 µg/mL (≈ 626 µM).
